Like-named read-outs stand apart in the source and are kept apart here.
Experiments:
Assay in all cases: Luciferase assay, sulfur compounds
Type in all cases: cell-based
[1] = molecular target: T1, consensus OR11H2 (Homo sapiens, UniProt Q8NH07, A157T/A61V/C266F/D203A/E289A/F213L/F41L/F62C/G242R/I210T/I230L/I288V/I49T/K181M/K238L/L128F/L146H/L162I/M76I/N106T/N25R/P269S/Q137R/Q308R/Q30L/R68Q/S246A/S268G/T131A/T283A/T37K/V63A/Y156C); settings: in the presence of a copper ion
T1 construct: expressed in transfected cells; host or cells: HEK293
T1 sequence (Q8NH07 12-326 N25R/Q30L/T37K/F41L/I49T/A61V/F62C/V63A/R68Q/M76I/N106T/L128F/T131A/Q137R/L146H/Y156C/A157T/L162I/K181M/D203A/I210T/F213L/I230L/K238L/G242R/S246A/C266F/S268G/P269S/T283A/I288V/E289A/Q308R): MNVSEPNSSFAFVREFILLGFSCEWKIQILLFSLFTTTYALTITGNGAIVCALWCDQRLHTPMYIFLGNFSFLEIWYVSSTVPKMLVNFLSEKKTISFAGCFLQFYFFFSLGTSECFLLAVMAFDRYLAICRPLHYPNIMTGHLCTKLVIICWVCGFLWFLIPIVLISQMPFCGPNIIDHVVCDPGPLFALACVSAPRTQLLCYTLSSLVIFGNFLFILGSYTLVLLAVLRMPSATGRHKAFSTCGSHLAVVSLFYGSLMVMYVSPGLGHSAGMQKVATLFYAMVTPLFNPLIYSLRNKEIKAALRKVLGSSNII

[2] = molecular target: T2, consensus OR2T27 (Homo sapiens, UniProt Q8NH04, A21T/G216A/G235R/H131R/I13V/I140V/K45M/L36V/R69M/S88G/T37I/V304A/V305L/V43T/V8M/W142L); settings: in the presence of a copper ion
T2 construct: expressed in transfected cells; host or cells: HEK293
T2 sequence (Q8NH04 with tags, fused parts or gaps with the stated changes): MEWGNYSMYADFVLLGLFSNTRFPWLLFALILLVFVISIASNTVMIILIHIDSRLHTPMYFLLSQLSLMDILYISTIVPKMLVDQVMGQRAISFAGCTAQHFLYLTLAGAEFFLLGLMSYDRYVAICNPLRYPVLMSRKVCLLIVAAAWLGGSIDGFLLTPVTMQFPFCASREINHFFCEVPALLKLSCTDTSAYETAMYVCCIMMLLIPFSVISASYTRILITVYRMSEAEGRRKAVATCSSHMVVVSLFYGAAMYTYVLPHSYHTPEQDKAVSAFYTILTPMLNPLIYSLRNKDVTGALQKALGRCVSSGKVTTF

[3] = molecular target: T3, consensus OR4K17 (Homo sapiens, UniProt Q8NGC6, A163V/E24Q/F120Y/F158L/G263S/I192T/I205M/I296T/I46V/K226R/L86V/P230S/S297A/V197I/V23I/V81M/V91T)
T3 construct: expressed in transfected cells; host or cells: HEK293
T3 sequence (Q8NGC6 with tags, fused parts or gaps V23I/E24Q/I46V/V81M/L86V/V91T/F120Y/F158L/A163V/I192T/V197I/I205M/K226R/P230S/G263S/I296T/S297A): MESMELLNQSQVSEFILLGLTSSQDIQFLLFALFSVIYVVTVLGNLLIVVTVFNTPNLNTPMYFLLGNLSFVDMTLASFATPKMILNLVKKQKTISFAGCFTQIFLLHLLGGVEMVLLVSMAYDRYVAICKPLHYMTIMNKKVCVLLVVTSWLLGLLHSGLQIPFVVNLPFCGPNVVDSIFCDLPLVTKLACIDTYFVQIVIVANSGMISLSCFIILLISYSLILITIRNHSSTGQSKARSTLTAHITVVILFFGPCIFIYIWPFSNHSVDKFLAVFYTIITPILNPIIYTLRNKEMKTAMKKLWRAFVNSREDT

[4] = molecular target: T4, consensus OR2T11 (Homo sapiens, UniProt Q8NH01)
T4 construct: fused on or other part: N-terminal Flag-Rho tag from the pME18S vector
T4 sequence (Q8NH01 whole entry, looked up, the tested form may be a part): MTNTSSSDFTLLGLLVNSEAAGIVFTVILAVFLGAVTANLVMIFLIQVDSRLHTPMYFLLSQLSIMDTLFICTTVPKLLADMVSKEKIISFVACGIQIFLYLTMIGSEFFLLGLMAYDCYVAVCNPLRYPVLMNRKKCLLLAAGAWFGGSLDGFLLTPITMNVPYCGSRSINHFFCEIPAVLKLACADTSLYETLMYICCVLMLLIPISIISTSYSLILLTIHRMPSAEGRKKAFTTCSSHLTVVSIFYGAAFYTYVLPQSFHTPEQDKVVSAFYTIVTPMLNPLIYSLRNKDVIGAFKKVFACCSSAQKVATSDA

[5] = molecular target: T5, consensus OR2L13 (Homo sapiens, UniProt Q8N349, C217Y/C28L/D174N/F161Y/F208L/F25L/F309S/G145I/H228R/H49R/H6Q/I211L/I240C/I248T/I24L/L123V/L17F/L185P/R301T/S128P/S215A/T115A/T149I/T189M/Y130H/Y82F); settings: in the presence of a copper ion
T5 construct: Flag (N); Rho tag (N); expressed in transfected cells; host or cells: HEK293
T5 sequence (Q8N349 1-312 H6Q/L17F/I24L/F25L/C28L/H49R/Y82F/T115A/L123V/S128P/Y130H/G145I/T149I/F161Y/D174N/L185P/T189M/F208L/I211L/S215A/C217Y/H228R/I240C/I248T/R301T/F309S): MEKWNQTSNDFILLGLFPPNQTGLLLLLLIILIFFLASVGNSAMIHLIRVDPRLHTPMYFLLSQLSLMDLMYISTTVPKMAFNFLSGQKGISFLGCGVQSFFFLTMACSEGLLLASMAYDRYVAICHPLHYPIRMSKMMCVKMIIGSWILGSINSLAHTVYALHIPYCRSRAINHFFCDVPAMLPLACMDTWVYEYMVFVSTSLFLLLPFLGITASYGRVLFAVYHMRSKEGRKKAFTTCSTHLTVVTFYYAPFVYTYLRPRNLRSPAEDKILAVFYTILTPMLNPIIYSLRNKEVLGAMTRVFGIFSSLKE

[6] = in the presence of a copper ion
[7] = read-out: EC50(μM) with 30 μM CuCl2; consensus OR2T11; 30 μM CuCl2

Structure (SMILES) | response of consensus OR11H2 [1] | response of consensus OR2T27 [2] | EC50 [3] [µM] | dose dependence of the response of consensus OR4K17 [3, 6] | response of consensus OR4K17 [3, 6] | dose dependence of the response of consensus OR2T11 [4, 6] | response of consensus OR2T11 [4, 6] | EC50 [4, 7] [µM] | response of consensus OR2L13 [5] | EC50 ([4]; consensus OR2T11; 30 μM CuCl2; read-out: EC50(μM) with 30 μM CuCl2) [µM]
CSSC [dimethyl disulfide] | responded | responded | 568 | dose-dependent response | responded | dose-dependent response | responded | 246 | responded | 
CSSSC [dimethyl trisulfide] | responded |  |  |  |  | dose-dependent response | responded |  | responded | 26
CS [methyl mercaptan] | responded | responded |  |  | responded | dose-dependent response | responded | 5 | responded | 
